Consider eleven compounds from US8609836B2, “4-aryl-2-anilino-pyrimidines” (Janssen Pharmaceutica NV, priority 2008, dated 2013).

For one assay, the target named is PLK4 (h) (Homo sapiens, UniProt O00444). Briefly: PLK-4 human kinase inhibition, scintillation proximity assay (SPA). Format: biochemical. Particulars: read-out: PLK4 pIC50 (converted). For orientation: SPA uses beads or plates that emit light when radiolabelled molecules are held near them.
The next assay has as its target AuroraB (h) (Homo sapiens, UniProt Q96GD4). The assay can be described thus: Aurora-B human kinase inhibition, SPA. Format: biochemical. As to conditions: read-out: AuroraB pIC50 (converted). Put shortly:
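SPA with biotinylated peptide (3 μM) in 60 mM Hepes pH 7.5, Mg/Mn 3 mM each, 0.5 μM ATP plus [γ-33P]ATP, AuroraB at 0.5 μg/ml. The reaction runs 60 min at room temperature and is stopped with EDTA and streptavidin PVT beads. 33P-substrate is read by scintillation imaging.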

For another assay, the target named is GSK3β (h) (Homo sapiens, UniProt P49841). Briefly: GSK-3β human kinase inhibition, SPA. Format: biochemical. As to conditions: read-out: GSK3b pIC50 (converted). Put shortly:
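Scintillation proximity assay: GSK3β (1 μg/ml) with 1 μM biotinylated peptide, 1 μM ATP plus [γ-33P]ATP in Tris pH 7.4, MgCl2, DTT. 60 min at room temperature, stopped with EDTA and streptavidin PVT beads; phosphorylation read by Leadseeker imaging.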

The target in the next assay is CDK1/CyclinB (h) (Homo sapiens, UniProt P06493). Briefly: CDK1/CyclinB human kinase inhibition, Invitrogen's FRET assay (Z'lyte). Format: biochemical. Particulars: read-out: CDK1 pIC50 (converted). A digest of the protocol:
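Z'lyte FRET assay: human CDK1/CyclinB (0.2 μg/ml) with 2 μM Ser/Thr peptide 12 and 10 μM ATP in 50 mM Hepes pH 7.5, MgCl2, EGTA, Brij-35, 60 min at room temperature. Protease development 60 min, then emission ratio 460/538 nm read with excitation at 390 nm.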

The next assay concerns the target CDK4/CyclinD1 (h) (Homo sapiens, UniProt P11802). Briefly: CDK4/CyclinD1 human kinase inhibition, SPA with GST-pRb substrate. As to conditions: read-out: CDK4 pIC50 (converted). Format: biochemical. The method, then:
The in vitro inhibition of a panel of kinases was assessed using either the scintillation proximity assay (SPA) as described by Cook, N. D. et al., Advances in Experimental Medicine and Biology (1991), 36; p. 525-528.
In the SPA technology the activity of the kinase of interest is measured using an appropriate biotinylated substrate that is incubated with the aforementioned kinase protein in the presence of (^33P) radiolabeled ATP. (^33P) Phosphorylation of the substrate is subsequently measured through binding of the phosphorylated substrate to streptavidine coated beads that are based on the scintillant poly(vinyl toluene) (PVT-Beads). The scintillation intensity is detected by imaging on Leadseeker.
All kinases are pre-diluted to a 10× working concentration prior to addition into the assay. The composition of the dilution buffer for each kinase is detailed below.
In a final reaction volume of 30 μl, CDK4/CyclinD1 (h) (2.5 μg/ml) is incubated with 50 mM Hepes pH 7.5, 8 mM NaF, 20 mM MgCl2, 1 mM DTT, 40 μg/ml of substrate GST-pRb, 2 nM [γ-^33P-ATP] (6.0 μCi/ml). After incubation of 60 minutes at room temperature, the reaction is stopped by addition of 40 μL of stop solution containing 8.7 mM EDTA, 0.17% Triton X-100, 25 mg/ml Glutathion SPA Beads (GE-healthcare). The plate is centrifuged and read for Scintillation topcount analyzer.

The target in a further assay is PLK1 T210D (h) (Homo sapiens, UniProt P53350, T210D). The assay can be described thus: PLK1 human kinase inhibition, SPA. As to conditions: read-out: PLK1 pIC50 (converted). Format: biochemical. A digest of the protocol: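 Radiometric SPA with PLK1 T210D (0.125 ng/ml) in 50 mM Hepes pH 8.0, 2 mM MnCl2, 1 mM DTT, 2 μM biotinylated peptide, 0.1 μM ATP plus 2 nM [γ-33P]ATP. 40 min at room temperature, EDTA stop. Phosphorylated substrate captured on streptavidin PVT beads, scintillation imaged.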
Sequence of PLK1 T210D (h) (P53350 whole entry T210D): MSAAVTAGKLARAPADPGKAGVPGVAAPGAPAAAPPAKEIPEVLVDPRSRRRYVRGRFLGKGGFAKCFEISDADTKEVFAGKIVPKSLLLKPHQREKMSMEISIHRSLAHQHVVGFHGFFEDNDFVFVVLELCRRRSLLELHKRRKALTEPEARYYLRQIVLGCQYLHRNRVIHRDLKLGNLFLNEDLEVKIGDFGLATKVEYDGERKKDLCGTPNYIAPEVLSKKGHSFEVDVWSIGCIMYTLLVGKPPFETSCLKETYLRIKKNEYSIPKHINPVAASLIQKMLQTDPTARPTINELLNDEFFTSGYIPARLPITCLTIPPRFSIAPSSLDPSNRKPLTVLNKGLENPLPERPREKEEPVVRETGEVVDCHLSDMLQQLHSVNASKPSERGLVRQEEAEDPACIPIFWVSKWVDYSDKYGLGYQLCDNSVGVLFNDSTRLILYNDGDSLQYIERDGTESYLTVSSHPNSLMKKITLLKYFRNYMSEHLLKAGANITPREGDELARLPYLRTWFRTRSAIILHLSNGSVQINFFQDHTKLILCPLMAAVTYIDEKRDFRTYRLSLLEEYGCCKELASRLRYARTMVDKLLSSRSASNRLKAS

The target of the next assay is PLK2 (h) (Homo sapiens, UniProt Q9NYY3). Briefly: PLK2 human kinase inhibition, SPA. Format: biochemical. Particulars: read-out: PLK2 pIC50 (converted). A digest of the protocol:
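SPA read on Leadseeker: PLK2 (30 μg/ml) with 2 μM biotinylated peptide, 0.1 μM ATP plus 2 nM [γ-33P]ATP in 50 mM Hepes pH 8.0, 2 mM MnCl2, 1 mM DTT. Reaction ran 20 min at room temperature, then EDTA stop and streptavidin PVT beads.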

In the next assay the target is PLK3 (h) (Homo sapiens, UniProt Q9H4B4). Briefly: PLK3 human kinase inhibition, SPA. Format: biochemical. As to conditions: read-out: PLK3 pIC50 (converted). A digest of the protocol: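 SPA: PLK3 (h) at 30 μg/ml with 2 μM biotinylated peptide, 0.1 μM ATP plus 2 nM [γ-33P]ATP in 50 mM Hepes pH 8.0, 2 mM MnCl2 and 1 mM DTT. Incubated 20 min at room temperature, then stopped with EDTA and streptavidin PVT beads. Scintillation imaged on Leadseeker.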
Sequence of PLK3 (h) (Q9H4B4 whole entry): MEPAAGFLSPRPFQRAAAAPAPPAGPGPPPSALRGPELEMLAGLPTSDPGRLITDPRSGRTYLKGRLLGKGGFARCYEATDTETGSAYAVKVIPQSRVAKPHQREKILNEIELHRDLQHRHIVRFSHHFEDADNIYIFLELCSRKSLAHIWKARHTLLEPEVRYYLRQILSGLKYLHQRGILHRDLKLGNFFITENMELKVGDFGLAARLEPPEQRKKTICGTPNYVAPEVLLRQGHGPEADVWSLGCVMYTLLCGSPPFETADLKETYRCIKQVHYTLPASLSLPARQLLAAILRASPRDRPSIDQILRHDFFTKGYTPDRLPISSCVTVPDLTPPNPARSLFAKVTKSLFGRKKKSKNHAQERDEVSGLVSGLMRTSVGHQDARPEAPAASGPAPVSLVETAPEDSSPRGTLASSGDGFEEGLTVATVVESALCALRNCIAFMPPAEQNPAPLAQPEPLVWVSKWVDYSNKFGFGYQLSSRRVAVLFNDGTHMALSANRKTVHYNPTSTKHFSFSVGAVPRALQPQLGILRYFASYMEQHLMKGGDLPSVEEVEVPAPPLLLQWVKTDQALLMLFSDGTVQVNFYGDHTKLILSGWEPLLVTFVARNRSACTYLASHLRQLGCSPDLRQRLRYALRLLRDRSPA

The next assay concerns HCT-116. Briefly: Cellular proliferation assay (Alamar blue), HCT-116. Format: cell-based. Particulars: Homo sapiens, 10% FCS, 72 hours with compound, Alamar blue 4 h. Put shortly: (§1)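 Cells were seeded in medium with 10% FCS at 37° C, 5% CO2, left 24 h without compound, then exposed to compounds for 72 h. Viability was read with Alamar blue (resazurin 9 μg/ml, K-ferrocyanide and K-ferricyanide 90 μM each), 6 h for U87-MG, 4 h for HCT-116, 24 h for A2780 and MDA-MB-231.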
On the technique in general: Resazurin is reduced to fluorescent resorufin, in cell work by metabolically active cells.

Another assay relates to U87-MG. The assay can be described thus: Cellular proliferation assay (Alamar blue), U87-MG. Format: cell-based. As to conditions: Homo sapiens, U-87 MG; 10% FCS; 72 hours with compound; Alamar blue 6 h; read-out: U87-MG (cellular proliferation assay, Table 4) (converted). Put shortly:
as §1

For another assay, the system named is A2780. Briefly: Cellular proliferation assay (Alamar blue), A2780. Format: cell-based. As to conditions: Homo sapiens, 10% FCS, 72 hours with compound, Alamar blue 24 h, read-out: A2780 (cellular proliferation assay, Table 4) (converted). Put shortly: as §1

Some results are limits rather than exact numbers.

Sequence of CDK1/CyclinB (h) (P06493 whole entry): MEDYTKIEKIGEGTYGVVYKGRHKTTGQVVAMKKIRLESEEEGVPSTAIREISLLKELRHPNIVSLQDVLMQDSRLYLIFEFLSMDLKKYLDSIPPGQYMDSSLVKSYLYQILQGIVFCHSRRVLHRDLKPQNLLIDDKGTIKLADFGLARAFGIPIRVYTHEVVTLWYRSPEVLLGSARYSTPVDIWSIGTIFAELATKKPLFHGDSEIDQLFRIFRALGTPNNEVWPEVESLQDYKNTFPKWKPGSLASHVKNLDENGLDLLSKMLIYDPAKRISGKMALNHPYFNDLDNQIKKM
Sequence of CDK1/CyclinB (h) (P14635 whole entry partner): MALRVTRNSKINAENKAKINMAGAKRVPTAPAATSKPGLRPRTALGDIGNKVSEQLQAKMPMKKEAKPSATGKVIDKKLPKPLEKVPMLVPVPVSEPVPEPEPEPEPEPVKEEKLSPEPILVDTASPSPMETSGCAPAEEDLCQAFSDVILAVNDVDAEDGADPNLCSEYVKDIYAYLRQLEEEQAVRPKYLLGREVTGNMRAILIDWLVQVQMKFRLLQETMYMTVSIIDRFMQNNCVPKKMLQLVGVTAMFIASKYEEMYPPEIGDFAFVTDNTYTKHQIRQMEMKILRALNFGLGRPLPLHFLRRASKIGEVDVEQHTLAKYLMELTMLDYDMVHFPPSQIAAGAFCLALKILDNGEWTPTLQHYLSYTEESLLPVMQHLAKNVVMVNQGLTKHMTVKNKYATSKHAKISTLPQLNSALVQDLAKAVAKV
Sequence of PLK4 (h) (O00444 whole entry): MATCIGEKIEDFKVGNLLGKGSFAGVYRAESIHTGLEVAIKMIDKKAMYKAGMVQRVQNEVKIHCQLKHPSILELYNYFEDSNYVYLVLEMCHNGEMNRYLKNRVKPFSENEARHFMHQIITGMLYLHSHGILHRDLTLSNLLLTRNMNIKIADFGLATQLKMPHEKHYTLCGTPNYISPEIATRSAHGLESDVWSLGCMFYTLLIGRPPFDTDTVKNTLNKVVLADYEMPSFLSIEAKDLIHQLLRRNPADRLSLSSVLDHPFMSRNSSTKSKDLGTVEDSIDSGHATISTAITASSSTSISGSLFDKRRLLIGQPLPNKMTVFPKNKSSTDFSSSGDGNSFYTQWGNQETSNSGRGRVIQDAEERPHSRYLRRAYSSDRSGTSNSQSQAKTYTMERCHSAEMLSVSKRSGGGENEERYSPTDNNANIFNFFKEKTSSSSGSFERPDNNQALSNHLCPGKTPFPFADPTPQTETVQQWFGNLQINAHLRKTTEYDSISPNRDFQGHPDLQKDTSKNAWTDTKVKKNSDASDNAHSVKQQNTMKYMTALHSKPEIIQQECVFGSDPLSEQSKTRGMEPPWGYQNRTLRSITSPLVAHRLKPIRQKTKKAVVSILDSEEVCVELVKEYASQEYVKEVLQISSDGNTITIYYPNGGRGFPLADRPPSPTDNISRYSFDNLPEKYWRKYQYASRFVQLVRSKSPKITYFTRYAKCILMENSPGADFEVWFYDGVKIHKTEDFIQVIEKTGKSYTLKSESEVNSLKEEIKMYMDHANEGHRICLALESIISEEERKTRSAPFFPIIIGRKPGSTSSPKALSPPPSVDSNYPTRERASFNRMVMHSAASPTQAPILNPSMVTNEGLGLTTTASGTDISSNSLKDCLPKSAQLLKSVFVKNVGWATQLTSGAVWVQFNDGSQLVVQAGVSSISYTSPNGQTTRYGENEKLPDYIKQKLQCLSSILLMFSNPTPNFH
Sequence of GSK3β (h) (P49841 whole entry): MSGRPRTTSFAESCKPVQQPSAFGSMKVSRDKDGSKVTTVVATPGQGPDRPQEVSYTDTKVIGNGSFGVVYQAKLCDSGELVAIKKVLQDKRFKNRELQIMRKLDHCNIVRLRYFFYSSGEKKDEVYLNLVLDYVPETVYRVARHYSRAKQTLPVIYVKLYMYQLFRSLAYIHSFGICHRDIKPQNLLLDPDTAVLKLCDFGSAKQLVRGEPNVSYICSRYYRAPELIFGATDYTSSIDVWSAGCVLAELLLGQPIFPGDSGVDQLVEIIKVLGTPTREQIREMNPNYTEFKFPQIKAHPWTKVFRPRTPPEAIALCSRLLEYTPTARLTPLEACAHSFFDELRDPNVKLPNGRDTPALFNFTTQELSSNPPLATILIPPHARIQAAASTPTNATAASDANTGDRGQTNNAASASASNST
Sequence of CDK4/CyclinD1 (h) (P11802 whole entry): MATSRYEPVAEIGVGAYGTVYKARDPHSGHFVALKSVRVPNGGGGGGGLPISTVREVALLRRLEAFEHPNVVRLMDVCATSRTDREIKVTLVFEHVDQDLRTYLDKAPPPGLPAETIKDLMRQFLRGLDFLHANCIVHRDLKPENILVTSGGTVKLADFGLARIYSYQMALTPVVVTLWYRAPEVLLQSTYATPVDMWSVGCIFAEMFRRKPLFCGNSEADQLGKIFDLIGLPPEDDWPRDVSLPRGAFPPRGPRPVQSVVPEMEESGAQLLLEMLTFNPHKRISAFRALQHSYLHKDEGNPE
Sequence of CDK4/CyclinD1 (h) (P24385 whole entry partner): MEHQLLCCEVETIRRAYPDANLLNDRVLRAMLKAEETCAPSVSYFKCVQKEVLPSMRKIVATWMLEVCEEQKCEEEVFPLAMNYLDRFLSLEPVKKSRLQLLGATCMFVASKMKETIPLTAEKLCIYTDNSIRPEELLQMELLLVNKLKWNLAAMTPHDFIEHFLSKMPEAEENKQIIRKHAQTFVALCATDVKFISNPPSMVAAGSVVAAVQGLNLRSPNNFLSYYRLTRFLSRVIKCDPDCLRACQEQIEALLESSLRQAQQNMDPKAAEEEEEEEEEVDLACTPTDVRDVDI
Sequence of PLK2 (h) (Q9NYY3 whole entry): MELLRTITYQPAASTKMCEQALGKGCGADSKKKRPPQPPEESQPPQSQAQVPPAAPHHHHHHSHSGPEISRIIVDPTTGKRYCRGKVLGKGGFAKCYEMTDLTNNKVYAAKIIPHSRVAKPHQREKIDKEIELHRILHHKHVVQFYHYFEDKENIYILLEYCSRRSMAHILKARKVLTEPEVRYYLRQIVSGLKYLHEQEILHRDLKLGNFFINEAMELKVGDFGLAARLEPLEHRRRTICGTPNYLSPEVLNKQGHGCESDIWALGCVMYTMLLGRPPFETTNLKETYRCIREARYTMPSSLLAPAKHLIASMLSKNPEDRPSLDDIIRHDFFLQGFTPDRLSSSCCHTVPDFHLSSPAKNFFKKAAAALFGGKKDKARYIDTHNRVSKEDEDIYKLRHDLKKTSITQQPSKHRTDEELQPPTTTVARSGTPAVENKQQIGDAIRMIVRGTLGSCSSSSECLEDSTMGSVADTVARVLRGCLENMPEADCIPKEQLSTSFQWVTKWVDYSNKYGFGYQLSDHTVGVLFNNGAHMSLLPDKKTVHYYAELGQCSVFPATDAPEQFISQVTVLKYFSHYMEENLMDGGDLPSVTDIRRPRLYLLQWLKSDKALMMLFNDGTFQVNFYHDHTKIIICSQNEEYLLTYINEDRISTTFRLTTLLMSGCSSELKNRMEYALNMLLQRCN
Sequence of AuroraB (h) (Q96GD4 whole entry): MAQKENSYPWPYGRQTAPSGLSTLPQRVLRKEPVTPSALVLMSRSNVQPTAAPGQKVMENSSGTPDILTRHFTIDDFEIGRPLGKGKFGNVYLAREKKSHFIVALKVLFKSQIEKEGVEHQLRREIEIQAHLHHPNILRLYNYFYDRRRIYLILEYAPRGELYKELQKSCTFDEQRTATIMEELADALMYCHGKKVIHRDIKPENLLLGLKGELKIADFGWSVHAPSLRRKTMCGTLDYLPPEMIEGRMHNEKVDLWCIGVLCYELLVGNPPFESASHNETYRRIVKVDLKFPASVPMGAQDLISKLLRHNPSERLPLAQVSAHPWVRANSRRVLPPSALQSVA

For the compound `COc1ccc2cc1CN(C)CCNC(=O)[C@@H]1CCCN1Cc1cc(Br)cc(c1)Nc1nccc-2n1` [Compound 174], the IC50 at PLK4 (h) was around 6.92 µM; at AuroraB (h), 8.71 µM; at GSK3β (h), 4.79 µM; on CDK1/CyclinB (h) it was above 10 µM; at CDK4/CyclinD1 (h), above 10 µM; at PLK1 T210D (h) it was above 10 µM. Also, the IC50 was above 10 µM on PLK2 (h); above 10 µM on PLK3 (h); above 10 µM with HCT-116; above 10 µM in the assay with U87-MG; 1.66 µM with A2780.

On to `CN1CCCNC(=O)C2CCN(CC2)Cc2cc(Br)cc(c2)Nc2nccc(n2)-c2ccc(cc2)C1` [Compound 63], for which the IC50 at PLK4 (h) was 1.12 µM; on AuroraB (h), above 10 µM; on GSK3β (h), 1.91 µM; at CDK1/CyclinB (h), above 10 µM; at CDK4/CyclinD1 (h), above 10 µM; at PLK1 T210D (h), above 10 µM. Moreover, the IC50 was above 10 µM at PLK2 (h); above 10 µM on PLK3 (h); above 10 µM in the assay with HCT-116; 5.89 µM in the assay on U87-MG; 2.69 µM in the assay with A2780.

Turning to `O=C1NCc2cccc(c2)-c2ccnc(n2)Nc2ccc(cc2)CN[C@H]1CO` [Compound 191], the IC50 on PLK4 (h) is above 10 µM; at AuroraB (h), above 10 µM; on GSK3β (h), 7.94 µM; at CDK1/CyclinB (h), above 10 µM; at CDK4/CyclinD1 (h), 7.41 µM; at PLK1 T210D (h), above 10 µM. For the same compound, the IC50 at PLK2 (h) and at PLK3 (h) was above 10 µM in each case.

For the compound `COc1ccc2cc1CN(C)CCNC(=O)CN1CCN(CC1)Cc1cc(Br)cc(c1)Nc1nccc-2n1` [Compound 50], the IC50 on PLK4 (h) was 9.33 µM; on AuroraB (h), above 10 µM; at GSK3β (h), 5.13 µM; at CDK1/CyclinB (h), above 10 µM; on CDK4/CyclinD1 (h), above 10 µM; at PLK1 T210D (h) it was above 10 µM. Further, the IC50 on PLK2 (h), at PLK3 (h), in the assay on HCT-116, with U87-MG and in the assay on A2780 was above 10 µM throughout.

Turning to `CN1CCCNC(=O)[C@@H]2CCCN2Cc2cc(Br)cc(c2)Nc2nccc(n2)-c2ccc(cc2)C1` [Compound 159], the IC50 is 1.48 µM at PLK4 (h); 5.75 µM at AuroraB (h); 6.31 µM at GSK3β (h); above 10 µM on CDK1/CyclinB (h); above 10 µM at CDK4/CyclinD1 (h); above 10 µM on PLK1 T210D (h). Also, the IC50 is above 10 µM at PLK2 (h); above 10 µM at PLK3 (h); above 10 µM with HCT-116; 6.92 µM with U87-MG; 2.69 µM in the assay with A2780.

On to `COc1ccc2cc1CN(C)CCCNC(=O)[C@@H]1CCCN1Cc1cc(Br)cc(c1)Nc1nccc-2n1` [Compound 170], for which the IC50 at PLK4 (h) is 3.89 µM; at AuroraB (h), 5.25 µM; on GSK3β (h), above 10 µM; at CDK1/CyclinB (h) it was above 10 µM; on CDK4/CyclinD1 (h), above 10 µM; on PLK1 T210D (h), above 10 µM. In addition, the IC50 at PLK2 (h) is above 10 µM; at PLK3 (h) it was above 10 µM; in the assay with HCT-116, above 10 µM; with U87-MG, 5.25 µM; in the assay with A2780 it was 4.17 µM.

Take `CN1CCCNC(=O)CN2CCN(CC2)Cc2cc(Br)cc(c2)Nc2nccc(n2)-c2ccc(cc2)C1` [Compound 137]: the IC50 at PLK4 (h) is 2.09 µM; on AuroraB (h) it was above 10 µM; on GSK3β (h), 2.95 µM; at CDK1/CyclinB (h), above 10 µM; on CDK4/CyclinD1 (h), above 10 µM; at PLK1 T210D (h), above 10 µM. The IC50 is above 10 µM on PLK2 (h); above 10 µM on PLK3 (h); above 10 µM in the assay on HCT-116; 7.94 µM with U87-MG; 3.89 µM with A2780.

With `COc1ccc2cc1CNCCNC(=O)C1CCN(CC1)Cc1cc(ccc1N1CCOCC1)Nc1nccc-2n1` [Compound 64], the IC50 at PLK4 (h) is 1.2 µM; on AuroraB (h), 7.41 µM; on GSK3β (h), above 10 µM; at CDK1/CyclinB (h), above 10 µM; on CDK4/CyclinD1 (h) it was above 10 µM; on PLK1 T210D (h), above 10 µM. For the same compound, the IC50 at PLK2 (h) and at PLK3 (h) was above 10 µM in each case.

As to `COc1ccc2cc1CN(C)CCNC(=O)C1CCN(CC1)Cc1cc(Br)cc(c1)Nc1nccc-2n1` [Compound 79], the IC50 at PLK4 (h) is 5.25 µM; at AuroraB (h) it was above 10 µM; on GSK3β (h) it was 0.832 µM; at CDK1/CyclinB (h), above 10 µM; at CDK4/CyclinD1 (h), above 10 µM; on PLK1 T210D (h), above 10 µM. Further, the IC50 at PLK2 (h) is above 10 µM; at PLK3 (h) it was above 10 µM; with HCT-116 it was above 10 µM; in the assay with U87-MG it was 7.59 µM; in the assay on A2780, 4.79 µM.

As to `CN1CCCNC(=O)CN2CCN(CC2)Cc2cccc(c2)Nc2nccc(n2)-c2ccc(cc2)C1` [Compound 143], the IC50 on PLK4 (h) is 3.55 µM; at AuroraB (h), above 10 µM; at GSK3β (h), above 3.02 µM; at CDK1/CyclinB (h), above 10 µM; at CDK4/CyclinD1 (h) it was above 10 µM; at PLK1 T210D (h), above 10 µM. Moreover, the IC50 on PLK2 (h), on PLK3 (h), in the assay on HCT-116, in the assay with U87-MG and with A2780 was above 10 µM each time.

With `COc1ccc2cc1CN1CCC[C@H]1C(=O)NCCCc1ccc(cn1)-c1ccnc(n1)N2` [Compound 2], the IC50 on PLK4 (h), at AuroraB (h), on GSK3β (h), at CDK1/CyclinB (h), on CDK4/CyclinD1 (h) and at PLK1 T210D (h) was above 10 µM in each case. Besides, the IC50 on PLK2 (h), at PLK3 (h), with HCT-116 and with U87-MG was above 10 µM in each case.
